Reference: patent publication US11040981B2, “Pyrrolotriazine compounds and methods of inhibiting TAM kinases” (Syros Pharmaceuticals, Inc., priority 2017, dated 2021)

Assays:
[1] = target: T1, TYRO3 (Homo sapiens, UniProt Q06418); assay: TR-FRET kinase activity assay, TYRO3; type: biochemical; settings: ATP at Km, 60 minutes
T1 sequence (Q06418 41-890): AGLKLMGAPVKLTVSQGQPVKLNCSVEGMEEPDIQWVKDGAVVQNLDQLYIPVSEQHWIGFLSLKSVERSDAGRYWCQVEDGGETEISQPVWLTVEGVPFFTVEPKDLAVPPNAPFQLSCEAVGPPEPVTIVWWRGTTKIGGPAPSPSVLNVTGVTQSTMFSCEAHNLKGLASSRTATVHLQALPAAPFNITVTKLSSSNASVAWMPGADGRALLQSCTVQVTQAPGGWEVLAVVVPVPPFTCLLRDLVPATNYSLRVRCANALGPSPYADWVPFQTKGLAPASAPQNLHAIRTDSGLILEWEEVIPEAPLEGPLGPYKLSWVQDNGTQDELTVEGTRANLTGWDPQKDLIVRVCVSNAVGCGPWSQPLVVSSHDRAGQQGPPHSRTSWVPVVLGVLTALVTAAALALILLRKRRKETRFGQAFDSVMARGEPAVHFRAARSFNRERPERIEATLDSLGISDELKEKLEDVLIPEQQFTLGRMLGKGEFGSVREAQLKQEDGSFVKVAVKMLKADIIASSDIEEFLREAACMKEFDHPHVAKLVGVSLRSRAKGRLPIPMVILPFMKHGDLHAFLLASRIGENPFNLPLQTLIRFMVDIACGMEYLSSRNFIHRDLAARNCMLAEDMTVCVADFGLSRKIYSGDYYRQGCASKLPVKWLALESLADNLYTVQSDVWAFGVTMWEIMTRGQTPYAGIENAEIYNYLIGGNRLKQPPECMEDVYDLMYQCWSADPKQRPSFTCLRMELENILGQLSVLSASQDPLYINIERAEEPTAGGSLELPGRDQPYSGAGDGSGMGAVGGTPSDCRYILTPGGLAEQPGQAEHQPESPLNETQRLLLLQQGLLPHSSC
Procedure, shortened: (§1)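 Each kinase phosphorylated a fluorescent-labelled tyrosine peptide in 50 mM HEPES pH 7.5, 10 mM MgCl2, 1 mM EGTA, 0.01% Brij 35, 1 mM DTT at RT, with ATP at Km for that enzyme. After 60 min, EDTA quench and Eu-anti-phosphotyrosine antibody (30 min, dark); IC50 from TR-FRET decrease.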

[2] = target: T2, MERTK (Homo sapiens, UniProt Q12866); assay: TR-FRET kinase activity assay, MERTK; type: biochemical; settings: for IC50: TR-FRET activity assay, ATP at Km, 60 minutes, read-out: Mer IC50
T2 sequence (Q12866 21-999): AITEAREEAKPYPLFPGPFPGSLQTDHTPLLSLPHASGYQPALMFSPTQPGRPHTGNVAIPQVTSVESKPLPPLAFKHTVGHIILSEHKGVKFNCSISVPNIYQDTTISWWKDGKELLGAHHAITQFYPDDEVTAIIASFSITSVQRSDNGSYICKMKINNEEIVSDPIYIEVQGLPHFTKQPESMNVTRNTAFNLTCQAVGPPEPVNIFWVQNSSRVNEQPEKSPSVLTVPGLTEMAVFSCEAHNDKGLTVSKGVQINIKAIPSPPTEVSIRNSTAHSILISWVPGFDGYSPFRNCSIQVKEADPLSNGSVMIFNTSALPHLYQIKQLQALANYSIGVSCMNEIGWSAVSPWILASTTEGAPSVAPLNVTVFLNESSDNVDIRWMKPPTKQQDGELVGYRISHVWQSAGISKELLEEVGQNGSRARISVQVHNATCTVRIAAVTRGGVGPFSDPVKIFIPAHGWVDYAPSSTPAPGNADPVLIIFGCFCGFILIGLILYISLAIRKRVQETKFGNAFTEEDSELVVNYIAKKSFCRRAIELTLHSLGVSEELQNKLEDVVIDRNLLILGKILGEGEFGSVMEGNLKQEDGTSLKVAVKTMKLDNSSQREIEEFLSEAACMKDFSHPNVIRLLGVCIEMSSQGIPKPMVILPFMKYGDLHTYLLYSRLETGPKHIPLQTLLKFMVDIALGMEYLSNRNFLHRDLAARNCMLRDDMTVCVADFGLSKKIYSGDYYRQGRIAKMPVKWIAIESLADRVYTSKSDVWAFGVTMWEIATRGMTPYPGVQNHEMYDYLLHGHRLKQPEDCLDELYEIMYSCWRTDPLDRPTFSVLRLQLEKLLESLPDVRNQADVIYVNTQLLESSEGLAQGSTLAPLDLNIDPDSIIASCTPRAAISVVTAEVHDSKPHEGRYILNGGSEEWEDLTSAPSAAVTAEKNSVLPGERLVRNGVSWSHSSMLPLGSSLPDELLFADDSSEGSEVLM
Procedure, shortened: as §1

[3] = ratio calculated as FLT3 IC50/Mer IC50
[4] = ratio of Mer to FLT3: FLT3 IC50/Mer IC50

Row | Structure (SMILES) | IC50 [1] | IC50 [2] | FLT3/Mer ratio (FLT3 IC50/Mer IC50) [2, 3] | FLT3/Mer ratio (FLT3 IC50/Mer IC50) [2, 4]
1 | COC[C@H](C)Nc1ncc2c(-c3ccnc(O[C@H]4CCN(C)C4)c3)cc([C@H]3CC[C@H](O)CC3)n2n1 [Compound 400] | ≤ 100 nM | ≤ 100 nM | +++ (“+++” represents a ratio of >100) | 
2 | COC[C@H](C)Nc1ncc2c(-c3cnn(C[C@@H]4CCC(=O)N4)c3)cc([C@H]3CC[C@H](O)CC3)n2n1 [Compound 368] | ≤ 100 nM | ≤ 100 nM |  | +++ (“+++” represents a ratio of >100)
3 | COC[C@H](C)Nc1ncc2c([C@@H]3CCCN(c4ccnc(C)n4)C3)cc([C@H]3CC[C@H](O)CC3)n2n1 [Compound 378] | 100 to 1000 nM | ≤ 100 nM |  | +++ (“+++” represents a ratio of >100)
4 | C[C@@H](CC(F)F)Nc1ncc2c(-c3cnn(C4COC4)c3)cc([C@H]3CC[C@H](O)CC3)n2n1 [Compound 351] | ≤ 100 nM | ≤ 100 nM |  | ++ (“++” represents a ratio of between 10 and 100)
5 | COC[C@H](C)Nc1ncc2c(-c3cc([C@H]4CC[C@H](O)CC4)n4nc(N[C@@H](C)COC)ncc34)cc([C@H]3CC[C@H](O)CC3)n2n1 [Compound 349] | ≤ 100 nM | ≤ 100 nM |  | +++ (“+++” represents a ratio of >100)
6 | COC[C@H](C)Nc1ncc2c(-c3cnn(CC4CCCO4)c3)cc([C@H]3CC[C@H](O)CC3)n2n1 (stereo partly drawn) [Compound 380] | ≤ 100 nM | ≤ 100 nM |  | +++ (“+++” represents a ratio of >100)
7 | COC[C@H](C)Nc1ncc2c([C@H]3CCN(S(C)(=O)=O)C3)cc([C@H]3CC[C@H](O)CC3)n2n1 [Compound 376] | ≤ 100 nM | ≤ 100 nM |  | +++ (“+++” represents a ratio of >100)
8 | CNOc1cc(-c2cc([C@H]3CC[C@H](O)CC3)n3nc(N[C@@H](C)COC)ncc23)ccn1 [Compound 361] | ≤ 100 nM | ≤ 100 nM |  | +++ (“+++” represents a ratio of >100)
9 | CC1(Nc2ncc3c(-c4cnn(C5COC5)c4)cc(C4CCC(O)CC4)n3n2)COC1 (stereo not drawn) [Compound 399] | ≤ 100 nM | ≤ 100 nM | +++ (“+++” represents a ratio of >100) | 
10 | CC[C@H](C)Nc1ncc2c(-c3cncc(S(C)(=O)=O)c3)cc([C@H]3CC[C@H](O)CC3)n2n1 [Compound 119] | ≤ 100 nM | ≤ 100 nM |  | +++ (“+++” represents a ratio of >100)
11 | CC(CC(F)F)Nc1ncc2c(-c3ccc(CN4CCN(C)CC4)cc3)cc(C3CCC(O)CC3)n2n1 (stereo not drawn) [Compound 352] | ≤ 100 nM | ≤ 100 nM |  | ++ (“++” represents a ratio of between 10 and 100)
12 | COC[C@H](C)Nc1ncc2c(-c3cnn(C4(C(=O)NC(C)C)CC4)c3)cc([C@H]3CC[C@H](O)CC3)n2n1 [Compound 415] | ≤ 100 nM | ≤ 100 nM | +++ (“+++” represents a ratio of >100) | 
13 | COC[C@H](C)Nc1ncc2c(-c3cnn([C@H]4CCN(C(C)=O)C4)c3)cc([C@H]3CC[C@H](O)CC3)n2n1 [Compound 397] | ≤ 100 nM | ≤ 100 nM | +++ (“+++” represents a ratio of >100) | 
14 | COC[C@H](C)Nc1ncc2c(-c3cnn([C@@H]4CCC(C(=O)OC(C)(C)C)C4)c3)cc([C@H]3CC[C@H](O)CC3)n2n1 (stereo partly drawn) [Compound 364] | ≤ 100 nM | ≤ 100 nM |  | +++ (“+++” represents a ratio of >100)
15 | COC[C@H](C)Nc1ncc2c([C@@H]3CCN(S(C)(=O)=O)C3)cc([C@H]3CC[C@H](O)CC3)n2n1 [Compound 375] | ≤ 100 nM | ≤ 100 nM |  | +++ (“+++” represents a ratio of >100)
16 | CNc1cc(-c2cc([C@H]3CC[C@H](O)CC3)n3nc(N[C@@H](C)COC)ncc23)ccn1 [Compound 354] | ≤ 100 nM | ≤ 100 nM |  | +++ (“+++” represents a ratio of >100)
17 | COC[C@H](C)Nc1ncc2c(-c3ccc(CN4CCN(C)CC4)cc3)cc([C@H]3CC[C@H](O)CC3)n2n1 (single isomer, unassigned) [Compound 124] | ≤ 100 nM | ≤ 100 nM |  | ++ (“++” represents a ratio of between 10 and 100)
18 | CCC(C)Nc1ncc2c(C)cc(C3CCC(O)CC3)n2n1 (stereo not drawn) [Compound 123] | 100 to 1000 nM | ≤ 100 nM |  | +++ (“+++” represents a ratio of >100)
19 | COC[C@H](C)Nc1ncc2c(-c3cnn([C@@H]4CCN(C(C)=O)C4)c3)cc([C@H]3CC[C@H](O)CC3)n2n1 [Compound 396] | ≤ 100 nM | ≤ 100 nM | +++ (“+++” represents a ratio of >100) | 
20 | CNC(=O)c1cc(-c2cc([C@H]3CC[C@H](O)CC3)n3nc(N[C@@H](C)COC(F)F)ncc23)cc(C)n1 [Compound 385] | ≤ 100 nM | ≤ 100 nM |  | +++ (“+++” represents a ratio of >100)
21 | C[C@@H](CC(F)(F)F)Nc1ncc2c(-c3ccnc(N4CCOCC4)c3)cc([C@H]3CC[C@H](O)CC3)n2n1 [Compound 346] | ≤ 100 nM | ≤ 100 nM |  | +++ (“+++” represents a ratio of >100)
22 | O[C@H]1CC[C@H](c2cc(-c3ccnc(N4CCOCC4)c3)c3cnc(N[C@H]4CCOC4)nn32)CC1 [Compound 362] | ≤ 100 nM | ≤ 100 nM |  | ++ (“++” represents a ratio of between 10 and 100)
23 | C[C@@H](CC(F)(F)F)Nc1ncc2c(C3=CCN(C(=O)OC(C)(C)C)CC3)cc([C@H]3CC[C@H](O)CC3)n2n1 [Compound 412] | ≤ 100 nM | ≤ 100 nM | +++ (“+++” represents a ratio of >100) | 
24 | COCC(C)Nc1ncc2c(C3CCN(c4ccnc(C)n4)C3)cc(C3CCC(O)CC3)n2n1 (stereo not drawn) [Compound 374] | ≤ 100 nM | ≤ 100 nM |  | +++ (“+++” represents a ratio of >100)
